Experimental data from patent US7109193B2, “Tricyclic diazepines tocolytic oxytocin receptor antagonists” (Wyeth, priority 2001, dated 2006).

Target: T1, human oxytocin receptor (Homo sapiens, UniProt P30559)
T1 construct: host or cells: CHO cells (pcDNA3.1 vector)
T1 sequence (P30559 1-389): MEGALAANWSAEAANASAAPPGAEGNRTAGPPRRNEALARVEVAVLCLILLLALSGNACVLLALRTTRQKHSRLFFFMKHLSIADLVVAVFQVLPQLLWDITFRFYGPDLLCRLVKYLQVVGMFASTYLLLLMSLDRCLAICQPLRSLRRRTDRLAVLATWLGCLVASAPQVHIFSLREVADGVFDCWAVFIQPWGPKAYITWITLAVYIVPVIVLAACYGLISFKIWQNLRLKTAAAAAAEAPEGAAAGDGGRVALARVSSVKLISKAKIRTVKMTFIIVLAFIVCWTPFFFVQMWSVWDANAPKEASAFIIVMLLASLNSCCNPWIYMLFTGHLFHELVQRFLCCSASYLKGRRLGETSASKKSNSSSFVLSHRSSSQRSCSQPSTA
Assay: Oxytocin binding in Chinese Hamster Ovary cell membranes expressing human oxytocin receptors
Conditions: 100 nM, CHO cell membranes, [3H]oxytocin, values without parentheses, read-out: OT % inhibition @ 100% nM

SMILES | inhibition at 0.1 µM
COc1cc(C(=O)N2Cc3ccc(C(=O)N4CCN(C(C)C)CC4)n3Cc3ccccc32)ccc1-c1cccc2ccccc12 [Example 236, (4-Isopropyl-1-piperazinyl){10-[3-methoxy-4-(1-naphthyl)benzoyl]-10,11-dihydro-5H -pyrrolo[2,1-c][1,4]benzodiazepin-3-yl}methanone] | 46%
COc1cc(C(=O)N2Cc3ccc(C(=O)N4CCN(C(C)C)CC4)n3Cc3ccccc32)ccc1-c1ccccc1C [Example 237, (4-isopropyl-1-piperazinyl){10-[(2-methoxy-2′-methyl[1,1′-biphenyl]-4-yl)carbonyl]-10,11-dihydro-5H-pyrrolo[2,1-c][1,4]benzodiazepin-3-yl}methanone] | 79%
COc1cc(-c2ccccc2C)c(Cl)cc1C(=O)N1Cc2ccc(C(=O)N3CCN(C(C)C)CC3)n2Cc2ccccc21 [Example 238, {10-[(6-Chloro-3-methoxy-2′-methyl[1,1′-biphenyl]-4-yl)carbonyl]-10,11-dihydro-5H -pyrrolo[2,1-c][1,4]benzodiazepin-3-yl}(4-isopropyl-1-piperazinyl)methanone] | 79%
COc1cccc(-c2cc(OC)c(C(=O)N3Cc4ccc(C(=O)N5CCN(C(C)C)CC5)n4Cc4ccccc43)cc2Cl)c1 [Example 239, {10-[(6-Chloro-3,3′-dimethoxy[1,1′-biphenyl]-4-yl)carbonyl]-10,11-dihydro-5H-pyrrolo[2,1-c][1,4]benzodiazepin-3-yl}(4-isopropyl-1-piperazinyl)methanone] | 61%
Cc1cc(C(=O)N2Cc3ccc(C(=O)N4CCN(C(C)C)CC4)n3Cc3ccccc32)ccc1-c1ccccc1C(F)(F)F [Example 240, (4-Isopropyl-1-piperazinyl)(10-{[2-methyl-2′-(trifluoromethyl)[1,1′-biphenyl]-4-yl]carbonyl}-10,11-dihydro-5H-pyrrolo[2,1-c][1,4]benzodiazepin-3-yl)methanone] | 62%
COc1ccccc1-c1ccc(C(=O)N2Cc3ccc(C(=O)N4CCN(C(C)C)CC4)n3Cc3ccccc32)cc1OC [Example 241, {10-[(2,2′-Dimethoxy[1,1-biphenyl]4-yl)carbonyl]-10,11-dihydro-5H-pyrrolo[2,1-c][1,4]benzodiazepin-3-yl}(4-isopropyl-1-piperazinyl)methanone] | 51%
COc1cccc(-c2ccc(C(=O)N3Cc4ccc(C(=O)N5CCN(C(C)C)CC5)n4Cc4ccccc43)cc2OC)c1 [Example 242, {10-[(2,3′-Dimethoxy[1,1′-biphenyl]-4-yl)carbonyl]-10,11-dihydro-5H-pyrrolo[2,1-c][1,4]benzodiazepin-3-yl}(4-isopropyl-1-piperazinyl)methanone] | 69%
